# Laboratory results published in patent US20260109707A1, “HETEROBIFUNCTIONAL COMPOUNDS AND METHODS OF TREATING DISEASE” (Halda Therapeutics OpCo. Inc., priority 2022, published 2026).
# Read-outs that look alike come from different tables or passages of the source.
# Legend:
# VCaP cells = test: Cellular growth inhibition assay for VCaP cells (CellTiter-Glo, 72 hours); assay type: cell-based, human
# Method in brief: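 Luminescent viability signal after 72 h of compound exposure gave GI50 values by four-parameter nonlinear regression. Compounds were added in 0.5% DMSO to cells plated 24 h earlier at 5000/well in DMEM containing 10% FBS.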
# [1] = test system: T-Rex 293 cell line SC3 cells having increased expression of androgen receptor protein due to exposure to doxycycline; test: Cellular growth inhibition assay, T-Rex 293 SC3 cells with doxycycline (CellTiter-Glo, 72 hours); assay type: cell-based; conditions: T-Rex 293 SC3 cells with increased androgen receptor expression due to doxycycline (10 ng/mL)
# Method in brief: (§1)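 Growth inhibition is measured in an inducible AR-expressing T-Rex 293 clone, SC3, cultured with or without 10 ng/mL doxycycline in hormone-depleted medium. Test compounds are applied for 72 hours. GI50 values derive from CellTiter-Glo 2.0 signal fitted by four-parameter regression.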
# [2] = test system: T-Rex 293 cell line SC3 cells lacking increased expression of androgen receptor protein; test: Cellular growth inhibition assay, T-Rex 293 SC3 cells without doxycycline (CellTiter-Glo, 72 hours); assay type: cell-based; conditions: T-Rex 293 cell line SC3 cells not exposed to doxycycline (lacking increased androgen receptor expression)
# Method in brief: as §1
Compound,"GI50 (VCaP cells; Homo sapiens, VCaP, 72 h)",GI50 (VCaP cells),GI50 ([1]; 72 h),GI50 ([2]; 72 h),GI50 [1],GI50 [2]
CC[C@@H]1N=C(c2ccc(N3CCC(CCc4ccc(C(=O)N[C@H]5CC[C@H](Oc6ccc(C#N)c(Cl)c6)CC5)nn4)CC3)cc2)c2c(sc(C)c2C)-n2c(C)nnc21 [I-613],< 0.5 µM,–,< 0.5 µM,1.5 to 3 µM,–,–
Cc1sc2c(c1C)C(c1ccc(N3CCC4(CC3)CCN(c3ccc(C(=O)N[C@H]5CC[C@H](Oc6ccc(C#N)c(Cl)c6)CC5)nn3)C4)nc1)=NCc1nnc(C)n1-2 [I-449],> 3 µM,–,< 0.5 µM,> 3 µM,–,–
Cc1sc2c(c1C)C(c1ccc(N3CCN(CC4CCN(c5ccc(C(=O)N[C@H]6CC[C@H](Oc7ccc(C#N)c(Cl)c7)CC6)nn5)CC4)CC3)cc1)=NC1(CC1)c1nnc(C)n1-2 [I-491],> 3 µM,–,< 0.5 µM,< 0.5 µM,–,–
C#Cc1ccc(O[C@H]2CC[C@H](NC(=O)c3ccc(N4CCC(C5CN(c6ccc(C7=NC8(CC8)c8nnc(C)n8-c8sc(C)c(C)c87)cc6)C5)CC4)nn3)CC2)cc1Cl [I-450],< 0.5 µM,–,< 0.5 µM,> 3 µM,–,–
Cc1sc2c(c1C)C(c1ccc(NC3CC4CCCC(C3)N4c3ncc(C(=O)N[C@H]4CC[C@H](Oc5ccc(C#N)c(Cl)c5)CC4)cn3)cc1)=NC(Cc1ncco1)c1nnc(C)n1-2 (stereo partly drawn) [I-799],< 0.5 µM,–,–,–,< 0.5 µM,> 3 µM
Cc1sc2c(c1C)C(c1ccc(N3CCC4CN(c5ccc(C(=O)N[C@H]6CC[C@H](Oc7ccc(C#N)c(Cl)c7)CC6)nn5)CCC4C3)cc1)=N[C@@H](C)c1nnc(C)n1-2 (stereo partly drawn) [I-554],0.5 to 1.5 µM,–,< 0.5 µM,–,–,> 3 µM
Cc1sc2c(c1C)C(c1ccc(C3CCC4(CC3)CCN(c3ccc(C(=O)N[C@H]5CC[C@H](Oc6ccc(C#N)c(Cl)c6)CC5)nn3)C4)cc1)=N[C@@H](C)c1nnc(C)n1-2 (stereo partly drawn) [I-495],–,< 0.5 µM,–,–,> 3 µM,< 0.5 µM
Cc1sc2c(c1C)C(c1ccc(COC3CCC4(CCCN(c5ccc(C(=O)N[C@H]6CC[C@H](Oc7ccc(C#N)c(Cl)c7)CC6)nn5)C4)C3)cc1)=N[C@@H](C)c1nnc(C)n1-2 (stereo partly drawn) [I-514],–,1.5 to 3 µM,< 0.5 µM,–,–,< 0.5 µM
Cc1sc2c(c1C)C(c1ccc(N3CC(C4CCN(c5ccc(C(=O)N[C@H]6CC[C@H](Oc7ccc(C#N)c(Cl)c7)CC6)nn5)C4)C3)cc1)=N[C@@H](C)c1nnc(C)n1-2 (stereo partly drawn) [I-555],< 0.5 µM,–,< 0.5 µM,< 0.5 µM,–,–
Cc1sc2c(c1C)C(c1ccc(OCC3CC4(CCCN(c5ccc(C(=O)N[C@H]6CC[C@H](Oc7ccc(C#N)c(Cl)c7)CC6)nn5)C4)C3)cn1)=N[C@@H](C)c1nnc(C)n1-2 (stereo partly drawn) [I-483],–,< 0.5 µM,–,–,< 0.5 µM,< 0.5 µM
CCNC(=O)C[C@@H]1N=C(c2ccc(N(C)C3CN(c4ccc(C(=O)N[C@H]5CC[C@H](Oc6ccc(C#N)c(Cl)c6)CC5)nn4)C3)cc2)c2c(sc(C)c2C)-n2c(C)nnc21 [I-65],0.5 to 1.5 µM,–,< 0.5 µM,0.5 to 1.5 µM,–,–
CCNC(=O)C[C@@H]1N=C(c2ccc(N3CC(N(C)C4CN(c5ccc(C(=O)N[C@H]6CC[C@H](Oc7ccc(C#N)c(Cl)c7)CC6)nn5)C4)C3)cc2)c2c(sc(C)c2C)-n2c(C)nnc21 [I-61],< 0.5 µM,–,< 0.5 µM,> 3 µM,–,–
Cc1sc2c(c1C)C(c1ccc(N3CCC4(CCN(c5ccc(C(=O)N[C@H]6CC[C@H](Oc7ccc(C#N)c(Cl)c7)CC6)nn5)C4)C3)cc1)=NC1(CC1)c1nnc(C)n1-2 (stereo partly drawn) [I-521],–,1.5 to 3 µM,< 0.5 µM,< 0.5 µM,–,–
Cc1sc2c(c1C)C(c1ccc(N3CCC4CN(c5ccc(C(=O)N[C@H]6CC[C@H](Oc7ccc(C#N)c(Cl)c7)CC6)nn5)CCC4C3)cc1)=NC1(CC1)c1nnc(C)n1-2 (stereo partly drawn) [I-549],–,> 3 µM,< 0.5 µM,–,–,< 0.5 µM
Cc1sc2c(c1C)C(c1ccc(CCC3CC4(CCCN(c5ccc(C(=O)N[C@H]6CC[C@H](Oc7ccc(C#N)c(Cl)c7)CC6)nn5)C4)C3)cc1)=NCc1nnc(C)n1-2 (stereo partly drawn) [I-548],1.5 to 3 µM,–,< 0.5 µM,< 0.5 µM,–,–

# Second part, led by results:
"GI50 (VCaP cells; Homo sapiens, VCaP, 72 h)",GI50 (VCaP cells),Compound,GI50 ([1]; 72 h),GI50 ([2]; 72 h),GI50 [1],GI50 [2]
< 0.5 µM,–,Cc1sc2c(c1C)C(c1ccc(NCC3CCN(c4ncc(C(=O)N[C@H]5CC[C@H](Oc6ccc(C#N)c(Cl)c6)CC5)cn4)CC3)cc1)=NC(Cc1ncco1)c1nnc(C)n1-2 (stereo partly drawn) [I-786],< 0.5 µM,< 0.5 µM,–,–
–,> 3 µM,Cc1sc2c(c1C)C(c1ccc(OCC3CCC4(C3)CN(c3ccc(C(=O)N[C@H]5CC[C@H](Oc6ccc(C#N)c(Cl)c6)CC5)nn3)CCO4)cc1)=N[C@@H](C)c1nnc(C)n1-2 (stereo partly drawn) [I-639],–,–,< 0.5 µM,> 3 µM
–,< 0.5 µM,Cc1sc2c(c1C)C(c1ccc(N3CCC4CN(c5ccc(C(=O)N[C@H]6CC[C@H](Oc7ccc(C#N)c(Cl)c7)CC6)nn5)CCC4C3)cc1)=N[C@@H](C)c1nnc(C)n1-2 (stereo partly drawn) [I-620],–,–,< 0.5 µM,< 0.5 µM
< 0.5 µM,–,Cc1sc2c(c1C)C(c1ccc(CC3CC4(CCCN(c5ccc(C(=O)N[C@H]6CC[C@H](Oc7ccc(C#N)c(Cl)c7)CC6)nn5)C4)C3)cn1)=NC(Cc1ncco1)c1nnc(C)n1-2 (stereo partly drawn) [I-768],–,–,< 0.5 µM,> 3 µM
–,> 3 µM,Cc1sc2c(c1C)C(c1ccc(CC3CCC4(CCCN(c5ccc(C(=O)N[C@H]6CC[C@H](Oc7ccc(C#N)c(Cl)c7)CC6)nn5)C4)C3)cn1)=N[C@@H](C)c1nnc(C)n1-2 (stereo partly drawn) [I-622],< 0.5 µM,< 0.5 µM,–,–
–,< 0.5 µM,Cc1sc2c(c1C)C(c1cccc(CC3CCC4(CC3)CCN(c3ccc(C(=O)N[C@H]5CC[C@H](Oc6ccc(C#N)c(Cl)c6)CC5)nn3)C4)c1)=N[C@@H](C)c1nnc(C)n1-2 (stereo partly drawn) [I-714],–,–,< 0.5 µM,< 0.5 µM
–,< 0.5 µM,Cc1sc2c(c1C)C(c1ccc(C3CCC(CC4CCN(c5ccc(C(=O)N[C@H]6CC[C@H](Oc7ccc(C#N)c(Cl)c7)CC6)nn5)CC4)CC3)cc1)=N[C@@H](C)c1nnc(C)n1-2 (stereo partly drawn) [I-765],–,–,< 0.5 µM,> 3 µM
–,< 0.5 µM,Cc1sc2c(c1C)C(c1ccc(CCCC3CCCN(c4ccc(C(=O)N[C@H]5CC[C@H](Oc6ccc(C#N)c(Cl)c6)CC5)nn4)CC3)cn1)=N[C@@H](C)c1nnc(C)n1-2 (stereo partly drawn) [I-700],–,–,< 0.5 µM,< 0.5 µM
–,> 3 µM,Cc1sc2c(c1C)C(c1ccc(CC3CC4(CCN(c5ccc(C(=O)N[C@H]6CC[C@H](Oc7ccc(C#N)c(Cl)c7)CC6)nn5)CC4)C3)cc1)=NC(C(F)(F)F)c1nnc(C)n1-2 (stereo partly drawn) [I-728],–,> 3 µM,> 3 µM,–
< 0.5 µM,–,COCC[C@@H]1N=C(c2ccc(CC3CC4(CCN(c5ccc(C(=O)N[C@H]6CC[C@H](Oc7ccc(C#N)c(Cl)c7)CC6)nn5)CC4)C3)cc2)c2c(sc(C)c2C)-n2c(C)nnc21 [I-660],< 0.5 µM,0.5 to 1.5 µM,–,–
< 0.5 µM,–,"Cc1sc2c(c1C)C(c1ccc(C3CCC4(CCN(c5ccc(C(=O)N[C@H]6CC[C@H](Oc7ccc(C#N)c(Cl)c7)CC6)nn5)C4)C3)cc1)=N[C@@H](C)c1nnc(C)n1-2 (stereo partly drawn) [I-821, N-[4-(3-chloro-4-cyano-phenoxy)cyclohexyl]-6-[8-[4-[(9S)-4,5,9,13-tetramethyl-3-thia-1,8,11,12-tetrazatricyclo[8.3.0.02,6]trideca-2(6),4,7,10,12-pentaen-7-yl]phenyl]-2-azaspiro[4.4]nonan-2-yl]pyridazine-3-carboxamide]",< 0.5 µM,< 0.5 µM,–,–
< 0.5 µM,–,Cc1sc2c(c1C)C(c1ccc(OC3CCC4(CCN(c5ccc(C(=O)N[C@H]6CC[C@H](Oc7ccc(C#N)c(Cl)c7)CC6)nn5)C4)C3)cc1)=N[C@@H](C)c1nnc(C)n1-2 (stereo partly drawn) [I-701],–,–,< 0.5 µM,< 0.5 µM
